Five molecules from patent US6025467A, “Parathyroid hormone derivatives and their use” (Takeda Chemical Industries, Ltd., priority 1995, dated 2000) can be followed below.

Residues, ends and D or L forms follow the SMILES beside them.

In one assay the test system is Sprangue Dawley rats. Description: Increase in femur bone weight in rats after subcutaneous dosing. Format: in vivo, rat. The note with it: 4.9 nmol/kg a day subcutaneously for two weeks; four-week-old male rats; dried right femur weight compared with vehicle group. On the procedure: To four-week-old male Sprangue Dawley rats, the compounds synthesized in Example 1 […], and increases in the bone weight in their femurs were compared with that of a group to which a vehicle (0.15M NaCl, 0.001N hydrochloric acid and 2% heat-inactivated rat serum) was given. After administration, their right femurs were taken out, and the tissues around them were removed. Then, the femurs were dried at 100° C. for 3 hours and weighed.

Assay [1] concerns the target T1, PTH receptor (Mus musculus, UniProt P41593).
T1 construct: a mouse cranial bone-derived osteoblast-like cell strain, MC3T3-EI cells; endogenous in cells; host or cells: MC3T3-E1 mouse osteoblast-like cells
T1 sequence (P41593 27-591): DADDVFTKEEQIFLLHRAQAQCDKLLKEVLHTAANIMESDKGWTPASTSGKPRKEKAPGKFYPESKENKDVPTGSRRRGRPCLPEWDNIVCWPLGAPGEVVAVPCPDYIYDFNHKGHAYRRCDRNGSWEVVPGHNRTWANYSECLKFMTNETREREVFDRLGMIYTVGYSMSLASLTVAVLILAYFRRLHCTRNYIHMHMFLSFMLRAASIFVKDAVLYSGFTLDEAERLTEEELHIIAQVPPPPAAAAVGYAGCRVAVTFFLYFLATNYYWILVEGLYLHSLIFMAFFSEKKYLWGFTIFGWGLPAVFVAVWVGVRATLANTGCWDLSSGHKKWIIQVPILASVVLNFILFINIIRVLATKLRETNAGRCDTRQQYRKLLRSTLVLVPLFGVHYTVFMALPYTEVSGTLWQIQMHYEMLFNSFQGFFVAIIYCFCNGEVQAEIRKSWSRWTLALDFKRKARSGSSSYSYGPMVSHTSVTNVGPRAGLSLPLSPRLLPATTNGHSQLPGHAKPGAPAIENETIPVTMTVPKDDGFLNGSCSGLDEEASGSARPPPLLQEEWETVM
The assay can be described thus: cAMP increase in MC3T3-EI osteoblast-like cells (biological activity in vitro). Type of assay: cell-based. The settings on record: 1 nM analogue, room temperature for 30 minutes, total cAMP by radioimmunoassay. On the procedure:
The biological activity of the PTH(1-34) peptide analogues was evaluated by the method reported by Shigeno et al., The Journal of Biological Chemistry, 263, 18369-18377 (1988) with a modification. A culture solution (Hank's solution, containing 20 mM N-2-hydroxyethylpiperazine-N'-2-ethanesulfonic acid (HEPES), 0.1% bovine serum albumin and 0.5 mM isobutylmethyl-xanthine) containing a 0.01, 0.1, 1, 10 or 100 nM peptide derivative was added in an amount of 100 μl to a mouse cranial bone-derived osteoblast-like cell strain, MC3T3-EI cells, cultivated on a 96-well multiplate (Nunclon, Nunc), followed by reaction at room temperature for 30 minutes. After addition of 100 μl of 0.2N hydrochloric acid, the plate was immersed in boiling water for 2.5 minutes to extract cyclic adenosine monophosphate (cAMP) produced by a PTH receptor from the cells. The total cAMP in the culture solution and the cells was assayed using a commercial radioimmunoassay kit (cyclic AMP [^125 I] kit "Du Pont-Daiichi", Daiichi Kagaku Yakuhin). For the biological activity of the PTH(1-34) peptide derivatives, increases in cAMP caused by 1 nM analogues are shown in Table 3.

The target in assay [2] is PTH receptor (mouse, UniProt P41593). Description: cell-based or functional assay.

As for `CC[C@H](C)[C@H](NC(=O)[C@H](CCC(=O)O)NC(=O)[C@H](CO)NC(=O)[C@@H](NC(=O)[C@@H](N)CO)C(C)C)C(=O)N[C@@H](CCC(N)=O)C(=O)N[C@@H](CC(C)C)C(=O)N[C@@H](CCSC)C(=O)N[C@@H](Cc1c[nH]cn1)C(=O)N[C@@H](CC(=O)O)C(=O)N[C@@H](CC(C)C)C(=O)NCC(=O)N[C@@H](CCCCN)C(=O)N[C@@H](Cc1c[nH]cn1)C(=O)N[C@@H](CC(C)C)C(=O)N[C@@H](CC(N)=O)C(=O)N[C@@H](CO)C(=O)N[C@@H](CCSC)C(=O)N[C@@H](CCC(=O)O)C(=O)N[C@@H](CCCNC(=N)N)C(=O)N[C@H](C(=O)N[C@@H](CCC(=O)O)C(=O)N[C@@H](Cc1c[nH]c2ccccc12)C(=O)N[C@@H](CC(C)C)C(=O)N[C@@H](CCCNC(=N)N)C(=O)N[C@@H](CCCCN)C(=O)N[C@@H](CCCCN)C(=O)N[C@@H](CC(C)C)C(=O)N[C@@H](CCC(N)=O)C(=O)N[C@@H](CC(=O)O)C(=O)N[C@H](C(=O)N[C@@H](Cc1c[nH]cn1)C(=O)N[C@@H](CC(N)=O)C(=O)N[C@@H](Cc1ccccc1)C(=O)O)C(C)C)C(C)C` [(3), [Asp^10] hPTH(1-34)], the bone increase with Sprangue Dawley rats is recorded as 26.1 mg. The molecule further gave a cAMP increase at PTH receptor [1] of 0.60 pmol/well.
In the assay on Sprangue Dawley rats, `CC[C@H](C)[C@H](NC(=O)[C@H](CCC(=O)O)NC(=O)[C@H](CO)NC(=O)[C@@H](NC(=O)[C@@H](N)CO)C(C)C)C(=O)N[C@@H](CCC(N)=O)C(=O)N[C@@H](CC(C)C)C(=O)N[C@@H](CCSC)C(=O)N[C@@H](Cc1c[nH]cn1)C(=O)N[C@@H](CCC(=O)O)C(=O)N[C@@H](CC(C)C)C(=O)NCC(=O)N[C@@H](CCCCN)C(=O)N[C@@H](Cc1c[nH]cn1)C(=O)N[C@@H](CC(C)C)C(=O)N[C@@H](CC(N)=O)C(=O)N[C@@H](CO)C(=O)N[C@@H](CCSC)C(=O)N[C@@H](CCC(=O)O)C(=O)N[C@@H](CCCNC(=N)N)C(=O)N[C@H](C(=O)N[C@@H](CCC(=O)O)C(=O)N[C@@H](Cc1c[nH]c2ccccc12)C(=O)N[C@@H](CC(C)C)C(=O)N[C@@H](CCCNC(=N)N)C(=O)N[C@@H](CCCCN)C(=O)N[C@@H](CCCCN)C(=O)N[C@@H](CC(C)C)C(=O)N[C@@H](CCC(N)=O)C(=O)N[C@@H](CC(=O)O)C(=O)N[C@H](C(=O)N[C@@H](Cc1c[nH]cn1)C(=O)N[C@@H](CC(N)=O)C(=O)N[C@@H](Cc1ccccc1)C(=O)O)C(C)C)C(C)C` [(4), [Glu^10] hPTH(1-34)] gave a bone increase of 31.1 mg. On PTH receptor [1], the cAMP increase amounted to 1.81 pmol/well.
For `CC[C@H](C)[C@H](NC(=O)[C@H](CCC(=O)O)NC(=O)[C@H](CO)NC(=O)[C@@H](NC(=O)[C@@H](N)CO)C(C)C)C(=O)N[C@@H](CCC(N)=O)C(=O)N[C@@H](CC(C)C)C(=O)N[C@@H](CCSC)C(=O)N[C@@H](Cc1c[nH]cn1)C(=O)N[C@@H](CC(=O)O)C(=O)N[C@@H](Cc1ccccc1)C(=O)NCC(=O)N[C@@H](CCCCN)C(=O)N[C@@H](Cc1c[nH]cn1)C(=O)N[C@@H](CC(C)C)C(=O)N[C@@H](CC(N)=O)C(=O)N[C@@H](CO)C(=O)N[C@@H](CCSC)C(=O)N[C@@H](CCC(=O)O)C(=O)N[C@@H](CCCNC(=N)N)C(=O)N[C@H](C(=O)N[C@@H](CCC(=O)O)C(=O)N[C@@H](Cc1c[nH]c2ccccc12)C(=O)N[C@@H](CC(C)C)C(=O)N[C@@H](CCCNC(=N)N)C(=O)N[C@@H](CCCCN)C(=O)N[C@@H](CCCCN)C(=O)N[C@@H](CC(C)C)C(=O)N[C@@H](CCC(N)=O)C(=O)N[C@@H](CC(=O)O)C(=O)N[C@H](C(=O)N[C@@H](Cc1c[nH]cn1)C(=O)N[C@@H](CC(N)=O)C(=O)N[C@@H](Cc1ccccc1)C(=O)O)C(C)C)C(C)C` [(5), [Asp^10, Phe^11] hPTH(1-34)] (H-SVSEIQLMHDFGKHLNSMERVEWLRKKLQDVHNF-OH) the same measures were 20.4 mg and 2.58 pmol/well.
SVSEIQLMHELGKHLNSMERVEWLRKKLQDVHNF [[Glu^10 ] hPTH(1-34)]: the “cAMP increase (pmol/well)” value with PTH receptor [2] turned out to be 1.81 pmol/well.
Same read-out and setting: as for SVSEIQLMHDFGKHLNSMERVEWLRKKLQDVHNF [[Asp^10, Phe^11 ] hPTH(1-34)], the figure is 2.58 pmol/well.
